Common to all, as to assay type: cell-based
In one assay the target is T1, hPPARδ (Homo sapiens, UniProt Q03181).
T1 construct: For assessing full-length PPAR receptors, CV-1 cells were transiently co-transfected; expressed in transfected cells; host or cells: CV-1 cells
T1 sequence (Q03181 1-441): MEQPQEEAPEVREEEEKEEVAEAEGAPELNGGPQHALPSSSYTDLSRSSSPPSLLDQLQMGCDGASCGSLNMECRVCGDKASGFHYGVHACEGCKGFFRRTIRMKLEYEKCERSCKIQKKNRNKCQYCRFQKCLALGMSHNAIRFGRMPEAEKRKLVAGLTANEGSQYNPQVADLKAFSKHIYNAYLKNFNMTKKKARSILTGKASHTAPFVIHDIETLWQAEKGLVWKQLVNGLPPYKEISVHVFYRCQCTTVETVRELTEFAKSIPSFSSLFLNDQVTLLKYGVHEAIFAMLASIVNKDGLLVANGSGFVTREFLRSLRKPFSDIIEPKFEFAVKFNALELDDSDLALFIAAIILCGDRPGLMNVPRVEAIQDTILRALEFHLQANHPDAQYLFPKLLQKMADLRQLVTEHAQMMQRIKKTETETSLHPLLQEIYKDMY
In words: CV-1 PPRE×3 TK-Luciferase transient transfection assay. To be noted: PPRE reporter, CV-1 cells. As for the experimental part: Cell Transient Transfection Assay. CV-1 cells from ATCC (Manassas, Va.) were grown to ˜85% confluence in DMEM/F12 supplemented with 10% FBS, 1% penicillin-streptomycin. Then, cells were transiently co-transfected with a plasmid containing the luciferase gene under regulation by four Gal4 DNA binding elements (UASG×4 TK-Luciferase, a gift from Dr. Ronald M. Evans), in concert with plasmids containing the ligand binding domain for the different nuclear receptors fused to the Gal4 DNA binding domain. For assessing full-length PPAR receptors, CV-1 cells were transiently co-transfected with a plasmid containing the luciferase gene under the control of three tandem PPAR response elements (PPRE) (PPRE×3 TK-Luciferase) and hPPARγ, hPPARα or hPPARδ expression plasmids, respectively. In all cases, fluorescence protein (GFP) expression plasmid was co-transfected as the control for the transfection efficiency. Twenty-four hours after the transfection, cells were cultured for another 24 hours in Optium-MEM (Invitrogen, Carlsbad, Calif.). Then, cells were treated with different compounds as indicated in figures for 24 hours in Optium-MEM. […]
PPAR transient transfection assay. […] In all cases, fluorescence protein (GFP) expression plasmid was co-transfected as the control for transfection efficiency. […]

In assay [1] the target is T2, retinoic X receptor α (RXRα) (Homo sapiens, UniProt P19793).
T2 construct: expressed in transfected cells; host or cells: CV-1 cells
T2 sequence (P19793 227-458 limits assumed): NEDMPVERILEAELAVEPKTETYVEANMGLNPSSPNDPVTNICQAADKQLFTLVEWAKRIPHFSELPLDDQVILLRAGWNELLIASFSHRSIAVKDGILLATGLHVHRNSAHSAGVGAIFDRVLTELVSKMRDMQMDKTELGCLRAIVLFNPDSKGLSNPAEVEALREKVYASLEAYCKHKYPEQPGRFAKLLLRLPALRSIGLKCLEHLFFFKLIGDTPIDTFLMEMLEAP
In words: CV-1 Gal4 ligand binding domain luciferase reporter assay. The settings on record: LNO2 1 μM; CV-1 cells. As for the experimental part: (§1) Cell Transient Transfection Assay. CV-1 cells from ATCC (Manassas, Va.) were grown to ˜85% confluence in DMEM/F12 supplemented with 10% FBS, 1% penicillin-streptomycin. Then, cells were transiently co-transfected with a plasmid containing the luciferase gene under regulation by four Gal4 DNA binding elements (UASG×4 TK-Luciferase, a gift from Dr. Ronald M. Evans), in concert with plasmids containing the ligand binding domain for the different nuclear receptors fused to the Gal4 DNA binding domain. For assessing full-length PPAR receptors, CV-1 cells were transiently co-transfected with a plasmid containing the luciferase gene under the control of three tandem PPAR response elements (PPRE) (PPRE×3 TK-Luciferase) and hPPARγ, hPPARα or hPPARδ expression plasmids, respectively. In all cases, fluorescence protein (GFP) expression plasmid was co-transfected as the control for the transfection efficiency. Twenty-four hours after the transfection, cells were cultured for another 24 hours in Optium-MEM (Invitrogen, Carlsbad, Calif.). Then, cells were treated with different compounds as indicated in figures for 24 hours in Optium-MEM. Reporter luciferase assay kits from Promega (Madison, Wis.) were used to measure the luciferase activity according to the manufacturer's instructions with a luminometer (Victor II, Perkin-Elmer). Luciferase activity was normalized by GFP units. Each condition was performed at least in triplicates in each experiment.
(Reporter assays use an easily measured gene product as a stand-in for the process of interest.)

In assay [2] the target is T3, mineralocorticoid receptor (MR) (Homo sapiens, UniProt P08235).
T3 construct: expressed in transfected cells; host or cells: CV-1 cells
T3 sequence (P08235 726-964 limits assumed): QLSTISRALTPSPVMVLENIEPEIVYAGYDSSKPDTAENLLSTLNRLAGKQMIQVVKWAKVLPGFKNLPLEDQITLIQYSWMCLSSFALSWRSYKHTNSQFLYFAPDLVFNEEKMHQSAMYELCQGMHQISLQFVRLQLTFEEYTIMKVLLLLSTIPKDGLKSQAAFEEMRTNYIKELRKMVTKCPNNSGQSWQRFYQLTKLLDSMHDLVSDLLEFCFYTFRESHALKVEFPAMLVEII
The description is as above. To be noted: LNO2 1 μM; CV-1 cells. As for the experimental part: as §1

Assay [3] concerns the target T4, progesterone receptor (PR) (Homo sapiens, UniProt P06401).
T4 construct: expressed in transfected cells; host or cells: CV-1 cells
T4 sequence (P06401 679-913 limits assumed): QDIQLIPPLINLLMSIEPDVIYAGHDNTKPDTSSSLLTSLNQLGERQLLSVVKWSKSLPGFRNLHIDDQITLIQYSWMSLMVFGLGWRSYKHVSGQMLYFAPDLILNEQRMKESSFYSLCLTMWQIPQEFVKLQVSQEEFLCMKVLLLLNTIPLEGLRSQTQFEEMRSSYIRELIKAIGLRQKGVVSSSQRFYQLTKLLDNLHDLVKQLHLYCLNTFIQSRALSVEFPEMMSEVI
Described as above. To be noted: LNO2 1 μM; CV-1 cells. As for the experimental part: as §1

The subject of the next assay is NF-kB pathways. In words: NF-kB pathway activity (NFkB-response element luciferase reporter, IkB degradation). The settings on record: reporter in response to TNFa; IkB degradation in response to E. coli LPS.

As for “9- and 10-nitro-9-cis-octadecenoic acid [OA-NO2]”, the “concentration at which PPARδ activation is significantly different from vehicle” value on hPPARδ (FIG. 17 legend) came out at 1 µM. Moreover, on hPPARδ (text of Example 3), the “concentration at which PPARδ shows significant activation” value is on record as ~300 nM.
Take “10-nitro-9,12-octadecadienoic acid and 12-nitro-9,12-octadecadienoic acid [LNO2]”: the RXRα receptor activation result in assay [1] was “no impact”. In assay [2], the MR receptor activation entry was “no impact”. For the same substance, the PR receptor activation result in assay [3] is recorded as “no impact”. In the assay with NF-kB pathways, the “activity of NF-kB pathways” value was “inhibits activity of NF-kB pathways”.

These data come from patent US9867795B2, “Nitrated lipids and methods of making and using thereof” (The UAB Research Foundation, priority 2004, dated 2018).
